Experimental data taken from patent publication US20220110934A1, “PHARMACEUTICAL COMPOSITION” (Ricoh Company, Ltd., priority 2019, published 2022).

Test: Dissolution test in physiological saline (Test Example 1, FIG. 11)
Format: physicochemical
Settings: 6 mg/mL as nintedanib in 100 mL physiological saline, 20° C., stirring
Method: The pharmaceutical composition (i) or the nintedanib ethanesulfonate (obtained from LC laboratories) was added to 100 mL of physiological saline so that the amount of nintedanib would be 6 mg/mL. The resultant mixture was subjected to a dissolution test at a liquid temperature of 20° C. under stirring with a stirrer.
FIG. 11 is a graph presenting the concentrations of nintedanib in the solutions measured over time.

COC(=O)c1ccc2c(c1)NC(=O)/C2=C(\Nc1ccc(N(C)C(=O)CN2CCN(C)CC2)cc1)c1ccccc1 [nintedanib ethanesulfonate, Nintedanib ethanesulfonate]
course of solubility (concentration of nintedanib in solution) over time: solubility decreased over time and sedimentation of insoluble matter was observed
